Data: patent US4959368A, “Therapeutic agent for neurological diseases” (Mitsui Petrochemical Industries Ltd., priority 1986, dated 1990)

Columns and labels:
[1] = tested on: human neuroblastoma cell line GOTO; test: Activity on neuroblastoma cell line GOTO (cell number, number and length of neurites); format: cell-based
Procedure: The biological activities in vitro of the compounds of formula (I) on cells of the nervous system were tested. The cells tested were human neuroblastoma cell line GOTO [see Sekiguchi, M., Oota, T., Sakakibara, K., Inui, N. & Fujii, G., Japan. J. Exp. Med., 49, 67-83 (1979)], and neuroblastoma cell line NB-1 [see Miyake, S., Shimo, Y., Kitamura, T., Nojyo, Y., Nakamura, T., Imkashuku, S. and Abe, T., The Autonomic Nervous System, 10, 115-120 (1973)], and mouse neuroblastoma cell line neuro-2a (Dainippon Pharmaceutical Co., Ltd.) which have been established as the cells of the nervous system. The above neuve cells were grown in an incubator at 37° C. in the presence of 5% carbon dioxide gas exponentially, and then cultivated for a certain period of time together with the compounds of formula (I).
The effect of the compounds of this invention on neuroblastoma cells was examined by the following method.
A culture medium [composed of 45% of RPMI 1640 medium, 45% modified Eagle's medium (MEM) and 10% of fetal calf serum (FCS) and containing penicillin G sodium (100 units/ml) and streptomycin sulfate (100 microgram/ml)] containing neurobalstoma cell line GOTO in the logarithmic growth period was poured in an amount of 2 ml each into polystyrene dishes (35 mm; made by Corning Co.) so that the cell concentration was 2 to 6×10^4 cells per dish, and the cells were cultured for 1 to 2 days in a carbon dioxide gas incubator containing 5% of carbon dioxide gas in air at 37° C. Then, the culture fluid was removed, and 2 ml of a fresh serum-free culture fluid (consisting of 50% of RPMI medium and 50% of MEM medium and containing penicillin G sodium and streptomycin sulfate in the same amounts as above) was added. At the same time, a presterilized PBS solution (phosphate buffered saline) of each of the test compounds in various concentrations was added to each of the dishes. After culturing for 24 hours, the number of living cells was counted. Furthermore, the culture was photographed, and from the photos, the number and length of neurites per cell were measured. The numer of living cells was counted for 3 to 6 dishes by resistance to staining with erythrosine dye. The number and length of the neurites were measured with regard to 6 photos (more than 200 cells per photo).

[2] = tested on: mouse neuroblastoma cell line neuro-2a; test: Activity on neuro-2a, cells with outgrown neurites; format: cell-based
Procedure: In order to examine the effects of the test compounds, the following method was also employed.
Mouse neuro 2a cells in the logarithmic growth period in the Dulbecco's modified Eagle's medium (DMEM) containing 10% FCS was seeded in a 48-well plate so that the number of cells was 1,000 cells/well, and cultured for one day in 0.25 ml of the culture fluid in each well. The culture medium was then replaced by a medium containing each of the test compounds and FCS, and the cells were further cultured for 24 hours. Then, a 4% aqueous glutaraldehyde solution in the same amount as the medium (0.25 ml) was added, and the culture fluid was left to stand at room temperature for 2 hours to fix the cells. After washing with water, a 0.05% aqueous solution of methylene blue was added to stain the cells. Under a microscope, the number of cells containing outgrown neurites (cells having at least one neutrite with a length at least two times as large as the long diameter of the cell) was counted visually, and the proportion of these cells in the entire cells was calculated. The well was observed over 5 or more visual fields (at least 2% of the entire surface area of the well) continuous to the left and right from a mark put at the center of the well, and more than 200 cells was counted. One drug compound was used in 6 different concentrations at most, and three runs were conducted for each concentration.

mice = test: Acute toxicity, mouse; format: in vivo; details: 24 hours; for Number of dead animals/number of test animals: Table 7, 1000 mg/kg p.o.; for Presumed LD50: Table 7, p.o., 1440 min
Procedure: The acute toxicity of the compounds of the invention was examined by the following method.
Male ddy-strain 5-week old mice and male Wistar-strain 8 week old rats, five per group, were used as experimental animals. Each of the compounds was dissolved in saline and administered perorally, and the toxicity of the compound was assessed 24 hours after the administration.

[3] = Table 3 Run No. 6, 0.1 mM, control 4.4 ± 0.9
[4] = Table 3 Run No. 10, 0.1 mM, control 1.7 ± 0.7
[5] = Table 3 Run No. 9, 1 mM, control 2.0 ± 1.0

Compound: COc1cc2cnc(N3CCNCC3)nc2cc1OC [Compound 940]
- Number of neurites/cell (mean ± S.D.) ([1]; Table 1 Run No. 1, 10 μg/ml, control 2.09 ± 0.61): 2.12 ± 0.60 neurites/cell
- Number of cells (mean ± S.E.) ([1]; Table 1 Run No. 1, 10 μg/ml, control 14.34 ± 0.72): 21.55 ± 2.36 × 10^4 /dish
- Length of neurites (mean ± S.D.) ([1]; Table 1 Run No. 1, 10 μg/ml, control 70.10 ± 43.03): 77.92 ± 49.91 μm/cell
- Cells having neurites with a length at least twice the long diameter of cell/total number of cells ([2]; Table 3 Run No. 11, 0.1 mM, control 2.5 ± 0.6): 11.5 ± 0.2%
- Cells having neurites with a length at least twice the long diameter of cell/total number of cells ([2]; Table 3 Run No. 11, 0.3 mM, control 2.5 ± 0.6): 17.0 ± 1.2%

Compound: CN1Cc2nc(N3CCNCC3)ncc2C1=O [Compound 606]
- Cells having neurites with a length at least twice the long diameter of cell/total number of cells [2, 3]: 6.9 ± 1.8%
- Cells having neurites with a length at least twice the long diameter of cell/total number of cells ([2]; Table 3 Run No. 6, 3 mM, control 4.4 ± 0.9): 11.9 ± 2.1%
- Number of dead animals/number of test animals (mice): 0/5
- Presumed LD50 (mice): > 1000 mg/kg p.o.

Compound: CN1C(=O)Cc2cnc(N3CCN(Cc4ccc5c(c4)OCO5)CC3)nc21 [Compound 438, 5,6-Dihydro-7-methyl-2[4-(3,4-methylenedioxyphenylmethyl)piperazino]-6-oxo(7H)pyrrolo[2,3-d]pyrimidine naphthalene-2-sulfonate]
- Number of dead animals/number of test animals (mice): 0/5

Compound: CN1Cc2nc(N3CCNCC3)ncc2C1=O [Compound 608]
- Number of dead animals/number of test animals (mice): 0/5
- Presumed LD50 (mice): > 1000 mg/kg p.o.

Compound: CC(=O)N1Cc2nc(N3CCNCC3)ncc2C1=O [Compound 650, 6-Acetyl-2-piperazino-5-oxo-5,6-dihydro(7H)pyrrolo[3,4-d]pyrimidine naphthalene-2-sulfonate]
- Number of dead animals/number of test animals (mice): 0/5

Compound: CC(C)N1Cc2nc(N3CCNCC3)ncc2C1=O [Compound 628]
- Length of neurites (mean ± S.D.) ([1]; Table 1, Run No. 6 by footnote, 1 μg/ml, control 42.48 ± 19.64, all *P <0.01): 55.72 ± 25.08 μm/cell
- Number of neurites/cell (mean ± S.D.) ([1]; Table 1, Run No. 6 by footnote, 10 μg/ml, control 1.79 ± 0.80): 2.06 ± 0.81 neurites/cell
- Length of neurites (mean ± S.D.) ([1]; Table 1, Run No. 6 by footnote, 10 μg/ml, control 42.48 ± 19.64, all *P <0.01): 53.68 ± 22.36 μm/cell
- Number of neurites/cell (mean ± S.D.) ([1]; Table 1, second control group (Run No. 6 by footnote), 1 μg/ml, control 1.79 ± 0.80): 1.90 ± 0.81 neurites/cell

Compound: Cl.c1nc(N2CCNCC2)nc2c1CCC2 [Compound 202, 6,7-Dihydro-2-piperazino(5H)cyclopentapyrimidine hydrochloride]
- Cells having neurites with a length at least twice the long diameter of cell/total number of cells [2, 3]: 5.6 ± 1.1%

Compound: CN1CCc2cnc(N3CCNCC3)nc21 [Compound 914, 5,6-Dihydro-7-methyl-2-piperazino(7H)pyrrolo[2,3-d]pyrimidine naphthalene-2-sulfonate]
- Cells having neurites with a length at least twice the long diameter of cell/total number of cells [2, 4]: 4.9 ± 0.9%
- Cells having neurites with a length at least twice the long diameter of cell/total number of cells ([2]; Table 3 Run No. 10, 0.3 mM, control 1.7 ± 0.7): 4.6 ± 0.8%

Compound: CN1C(=O)Cc2cnc(N3CCNCC3)nc21 [Compound 414]
- Cells having neurites with a length at least twice the long diameter of cell/total number of cells ([2]; Table 3 Run No. 8, 0.3 mM, control 3.7 ± 0.4): 15.0 ± 4.0%
- Cells having neurites with a length at least twice the long diameter of cell/total number of cells ([2]; Table 3 Run No. 8, 0.5 mM, control 3.7 ± 0.4): 33.4 ± 2.6%
- Cells having neurites with a length at least twice the long diameter of cell/total number of cells ([2]; Table 3 Run No. 8, 1 mM, control 3.7 ± 0.4): 43.6 ± 7.8%

Compound: CCOC(=O)CN1CCN(c2ncc(C(=O)OC)c(NC(C)C)n2)CC1 [Compound 100, Methyl 2-(4-ethoxycarbonylmethylpiperazino)-4-isopropylaminopyrimidine-5-carboxylate]
- Number of neurites/cell (mean ± S.D.) ([1]; Table 1, Run No. 7 by footnote, 10 μg/ml, control 1.77 ± 0.68): 2.00 ± 0.79 neurites/cell
- Length of neurites (mean ± S.D.) ([1]; Table 1, Run No. 7 by footnote, 10 μg/ml, control 42.20 ± 17.75, all *P <0.01): 56.06 ± 26.47 μm/cell

Compound: Cl.c1nc(N2CCNCC2)nc2c1CCO2 [Compound 902, 5,6-Dihydro-2-piperazinofuro[2,3-d]pyrimidine hydrochloride]
- Cells having neurites with a length at least twice the long diameter of cell/total number of cells ([2]; Table 3 Run No. 6, 0.01 mM, control 4.4 ± 0.9): 6.9 ± 0.8%
- Cells having neurites with a length at least twice the long diameter of cell/total number of cells ([2]; Table 3 Run No. 6, 0.03 mM, control 4.4 ± 0.9): 6.7 ± 0.9%
- Cells having neurites with a length at least twice the long diameter of cell/total number of cells ([2]; Table 3 Run No. 6, 1 mM, control 4.4 ± 0.9): 6.7 ± 1.0%

Compound: CC1C(=O)N(C)c2nc(N3CCNCC3)ncc21.O=C(O)/C=C\C(=O)O (stereo not drawn) [Compound 446, 5,6-Dihydro-5,7-dimethyl-6-oxo-2-piperazino(7H)pyrrolo[2,3-d]pyrimidine maleate]
- Cells having neurites with a length at least twice the long diameter of cell/total number of cells ([2]; Table 3 Run No. 9, 0.5 mM, control 2.0 ± 1.0): 6.3 ± 0.4%
- Cells having neurites with a length at least twice the long diameter of cell/total number of cells [2, 5]: 9.2 ± 2.0%

Compound: CC(=O)N1CCN(c2ncc3c(n2)N(C)C(=O)C3)CC1 [Compound 440, 2-(4-Acetylpiperazino)-5,6-dihydro-7-methyl-6-oxo(7H)pyrrolo[2,3-d]pyrimidine]
- Cells having neurites with a length at least twice the long diameter of cell/total number of cells [2, 5]: 5.8 ± 1.0%
- Cells having neurites with a length at least twice the long diameter of cell/total number of cells ([2]; Table 3 Run No. 9, 3 mM, control 2.0 ± 1.0): 12.9 ± 4.1%

Compound: CCNc1nc(N2CCNCC2)ncc1C(=O)OC [Compound 136]
- Number of neurites/cell (mean ± S.D.) ([1]; Table 1 Run No. 2, 1 μg/ml, control 2.06 ± 0.60): 2.14 ± 0.63 neurites/cell
- Number of cells (mean ± S.E.) ([1]; Table 1 Run No. 2, 1 μg/ml, control 12.30 ± 1.48): 12.85 ± 2.52 × 10^4 /dish
- Length of neurites (mean ± S.D.) ([1]; Table 1 Run No. 2, 1 μg/ml, control 55.00 ± 37.26): 60.24 ± 34.28 μm/cell
- Cells having neurites with a length at least twice the long diameter of cell/total number of cells ([2]; Table 3 Run No. 2, 0.1 mM, control 1.9 ± 0.9): 7.2 ± 1.7%
- Cells having neurites with a length at least twice the long diameter of cell/total number of cells ([2]; Table 3 Run No. 10, 0.01 mM, control 1.7 ± 0.7): 5.8 ± 1.6%
- Cells having neurites with a length at least twice the long diameter of cell/total number of cells ([2]; Table 3 Run No. 10, 0.03 mM, control 1.7 ± 0.7): 16.4 ± 0.9%
- Cells having neurites with a length at least twice the long diameter of cell/total number of cells [2, 4]: 12.6 ± 1.4%

Compound: CCC(C)N1Cc2nc(N3CCNCC3)ncc2C1=O (stereo not drawn) [Compound 638]
- Cells having neurites with a length at least twice the long diameter of cell/total number of cells ([2]; Table 3 Run No. 9, 0.1 mM, control 2.0 ± 1.0): 6.5 ± 0.2%

Compound: NC(=O)CN1Cc2nc(N3CCNCC3)ncc2C1=O [Compound 652]
- Cells having neurites with a length at least twice the long diameter of cell/total number of cells ([2]; Table 3 Run No. 2, 1 mM, control 1.9 ± 0.9): 4.5 ± 0.3%

Compound: CNc1nc(N2CCNCC2)ncc1CCO [Compound 140, 2-Piperazino-5-(2-hydroxyethyl)-4-methylaminopyrimidine 2-naphthalenesulfonate]
- Cells having neurites with a length at least twice the long diameter of cell/total number of cells ([2]; Table 3 Run No. 9, 0.03 mM, control 2.0 ± 1.0): 3.7 ± 1.4%
